From ChEMBL document CHEMBL1201862, “PubChem BioAssay data set” (2004)
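Exposure lasted 48 hours, with cells grown in 96-well plates and compounds tested at five concentrations. GI50: concentration for 50% inhibition of growth.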 Active and inactive are the calls of the source. No stated cut-off is given here; in the data, active = GI50 up to about 1.1 µM and inactive = higher. Where a SMILES comes first, the peptide text is derived from it. The star is where a group is joined. Boc = CC(C)(C)OC(=O)*

Legend:
Experiment in all cases: inhibition of tumour cell growth, NCI panel, 48 h
OVCAR-8 = test system: OVCAR-8
OVCAR-5 = test system: OVCAR-5
A549 = test system: A549
MDA-MB-231 = test system: MDA-MB-231
NCI/ADR-RES = test system: NCI/ADR-RES
LOX IMVI = test system: LOX IMVI
SK-MEL-2 = test system: SK-MEL-2
Hs-578T = test system: Hs-578T
COLO 205 = test system: COLO 205
EKVX = test system: EKVX
NCI-H460 = test system: NCI-H460
MDA-MB-435 = test system: MDA-MB-435
PC-3 = test system: PC-3
MDA-N = test system: MDA-N

Row | SMILES | GI50 (OVCAR-8) | GI50 (OVCAR-5) | GI50 (A549) | GI50 (MDA-MB-231) | GI50 (NCI/ADR-RES) | GI50 (LOX IMVI) | GI50 (SK-MEL-2) | GI50 (Hs-578T) | GI50 (COLO 205) | GI50 (EKVX) | GI50 (NCI-H460) | GI50 (MDA-MB-435) | GI50 (PC-3) | GI50 (MDA-N)
1 | Cc1cnc2nc(-c3ccc4ccccc4c3)cc(O)c2c1 | 0.685 µM (active) | 0.855 µM (active) | 0.625 µM (active) | 1.05 µM (active) | 0.349 µM (active) | 0.728 µM (active) | > 100 µM (inactive) | 0.449 µM (active) | 0.342 µM (active) |  |  |  |  | 
2 | COc1ccc(C(C2C(=O)N(C)C(=O)N(C)C2=O)C(F)(F)C(=O)N(C)C)cc1 (stereo not given) | > 100 µM (inactive) | > 100 µM (inactive) | > 100 µM (inactive) | > 100 µM (inactive) | > 100 µM (inactive) | > 100 µM (inactive) | > 100 µM (inactive) |  | > 100 µM (inactive) | > 100 µM (inactive) | > 100 µM (inactive) | > 100 µM (inactive) | > 100 µM (inactive) | 
3 | BrP(NC1CCCCCC1)(c1ccccc1)(c1ccccc1)c1ccccc1 | 2.9 µM (inactive) | 18 µM (inactive) | 5.94 µM (inactive) | 3.56 µM (inactive) | 44 µM (inactive) | 2.36 µM (inactive) | 2.44 µM (inactive) | 3 µM (inactive) | 1.78 µM (inactive) | 7.14 µM (inactive) | 1.33 µM (inactive) | 2.15 µM (inactive) | 1.56 µM (inactive) | 
4 | CCOC(=O)c1cn2c(n1)sc1cc([N+](=O)[O-])ccc12 | > 100 µM (inactive) | > 100 µM (inactive) | > 100 µM (inactive) | 38.5 µM (inactive) | > 100 µM (inactive) | > 100 µM (inactive) | > 100 µM (inactive) | > 100 µM (inactive) | > 100 µM (inactive) | > 100 µM (inactive) | > 100 µM (inactive) | > 100 µM (inactive) | > 100 µM (inactive) | 
5 | N#C/N=[N+](\[O-])c1ccc(C(=O)O)cc1 | 17.6 µM (inactive) | 20 µM (inactive) | > 100 µM (inactive) |  | 19.3 µM (inactive) |  | 18.7 µM (inactive) | 30.8 µM (inactive) |  | 18.4 µM (inactive) | 28.7 µM (inactive) | 17.9 µM (inactive) | 17.1 µM (inactive) | 
6 | COC(=O)[C@H](Cc1ccc(O)cc1)NC(=O)[C@H](Cc1ccc(O)cc1)NC(=O)OC(C)(C)C (Boc-Tyr-Tyr-OMe) | 66.4 µM (inactive) | > 100 µM (inactive) | > 100 µM (inactive) | 60 µM (inactive) | > 100 µM (inactive) | > 100 µM (inactive) |  | > 100 µM (inactive) | 37.2 µM (inactive) | > 100 µM (inactive) | > 100 µM (inactive) |  | > 100 µM (inactive) | > 100 µM (inactive)
7 | O=CNCNCCO | > 100 µM (inactive) | > 100 µM (inactive) | > 100 µM (inactive) |  | > 100 µM (inactive) |  | > 100 µM (inactive) | > 100 µM (inactive) |  | > 100 µM (inactive) | > 100 µM (inactive) |  |  | 
8 | CN1CN(c2ccccc2)C2(CCN(CCCC(=O)c3cccs3)CC2)C1=O | 55.8 µM (inactive) | 35.9 µM (inactive) | 29.3 µM (inactive) | 50.9 µM (inactive) | 41 µM (inactive) | 47.1 µM (inactive) |  |  | 17.3 µM (inactive) | 31.5 µM (inactive) |  |  | 94.8 µM (inactive) | 68.7 µM (inactive)
9 | CCN(CCO)C(=O)C1(c2ccccc2)CCCCC1 | > 10 µM (inactive) | > 10 µM (inactive) | > 10 µM (inactive) | > 10 µM (inactive) | > 10 µM (inactive) | > 10 µM (inactive) | > 10 µM (inactive) | > 10 µM (inactive) | > 10 µM (inactive) | > 10 µM (inactive) | > 10 µM (inactive) | > 10 µM (inactive) | > 10 µM (inactive) | 
